# Data reported in patent publication US20250122221A1 (NANJING ZAIMING PHARMACEUTICAL CO., LTD., priority 2022, published 2025).
# Target: N-terminal active peptide segment (MI-N899) of POLQ with ATPase activity (Homo sapiens (Human), UniProt O75417)
# Assay: POLQ enzyme activity inhibition experiment (ATPase, NADH-coupled, OD 340 nm)
# Type: biochemical
# Settings: 100 nM POLQ (N), 100 μM ATP, 300 nM dT50
# Description: The Envision microplate reader from Perkin Elmer Inc was used to measure the reduction of OD value of NADH at 340 nm, thus reflecting the enzyme activity. Experimental method: The POLQ enzyme was diluted to 100 nM with a reaction buffer (20 mM Tris HCl (pH 7.80), 80 mM KCl, 10 mM MgCl2, 1 mM DTT, 0.01% w/v bovine serum albumin, 0.01% v/v Tween-20, and 5% v/v glycerol). The compounds to be tested were diluted to different concentrations in dimethyl sulfoxide (DMSO) using the Echo 650 pipetting system, and transferred to a 384-well plate, 20 μL/well of 100 nM POLQ was added, and the mixture was incubated at room temperature for 15 minutes. A reaction mixture solution was formulated, and the concentration of each component in the reaction mixture solution was: 100 μM ATP, 300 nM […], 300 μM NADH, 6 mM PEP, 10 U/mL lactate dehydrogenase and 20 U/mL pyruvate kinase. 20 μL/well of reaction mixture solution was added to start the enzyme reaction. […] The concentration range was from 10 μM to 0.0005 μM, and the final concentration of DMSO in the system was 0.2% v/v. The 384-well plate was reacted at room temperature for 20 minutes, and then the OD value at 340 nm was read with an Envision microplate reader. The inhibition rate was calculated, and XLfit software was used to perform fitting to obtain IC50 of the compounds. In the experiment, a blank group and a DMSO group were set up, respectively.
# N-terminal active peptide segment (MI-N899) of POLQ with ATPase activity, sequence (O75417 1-899 limits assumed): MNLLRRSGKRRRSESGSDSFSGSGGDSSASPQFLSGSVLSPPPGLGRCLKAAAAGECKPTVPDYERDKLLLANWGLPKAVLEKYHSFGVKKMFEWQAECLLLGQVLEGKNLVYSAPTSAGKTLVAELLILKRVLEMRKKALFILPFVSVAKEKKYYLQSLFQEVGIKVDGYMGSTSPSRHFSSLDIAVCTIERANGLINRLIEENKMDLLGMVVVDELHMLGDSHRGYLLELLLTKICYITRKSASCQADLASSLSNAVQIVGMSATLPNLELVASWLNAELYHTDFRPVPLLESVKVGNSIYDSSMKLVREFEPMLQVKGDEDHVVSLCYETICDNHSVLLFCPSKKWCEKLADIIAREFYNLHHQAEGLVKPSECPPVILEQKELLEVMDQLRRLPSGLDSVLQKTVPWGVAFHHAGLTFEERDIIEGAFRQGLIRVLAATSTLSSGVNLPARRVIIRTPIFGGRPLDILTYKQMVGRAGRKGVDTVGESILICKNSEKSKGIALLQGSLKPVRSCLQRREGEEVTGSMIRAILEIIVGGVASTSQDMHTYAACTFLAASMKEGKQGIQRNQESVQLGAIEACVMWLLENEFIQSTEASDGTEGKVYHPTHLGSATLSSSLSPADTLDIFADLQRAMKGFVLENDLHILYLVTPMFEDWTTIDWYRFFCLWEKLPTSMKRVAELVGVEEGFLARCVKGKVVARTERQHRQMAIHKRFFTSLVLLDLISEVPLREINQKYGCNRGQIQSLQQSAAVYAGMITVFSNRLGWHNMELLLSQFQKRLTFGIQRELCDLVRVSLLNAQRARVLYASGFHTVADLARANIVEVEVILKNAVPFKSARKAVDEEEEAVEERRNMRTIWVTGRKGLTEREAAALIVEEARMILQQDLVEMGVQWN
row,Compound,IC50 [µM]
1,"COc1ccccc1-c1cnc(C(F)(F)F)cc1C(=O)Nc1nc2ncc(-c3ccc(C#N)cc3)nc2s1 [Compound 53, N-(6-(4-cyanophenyl)thiazolo[4,5-b]pyrazin-2-yl)-5-(2-methoxyphenyl)-2-(trifluoromethyl)pyridine-4-carboxamide]",0.1 to 0.5
2,"C#Cc1cnc(C)cc1-c1cc(C)ncc1C(=O)Nc1nc2ncc(-c3ccc(C#N)cc3)nc2s1 [Compound 64, N-(6-(4-cyanophenyl)thiazolo[4,5-b]pyrazin-2-yl)-5′-ethynyl-2′,6-dimethyl-[4,4′-bipyridine]-3-carboxamide]",< 0.1
3,"COc1cnc(C)cc1-c1cc(C)ncc1C(=O)Nc1nc2ncc(-c3ccc(Cl)cc3)nc2s1 [Compound 67, N-(6-(4-chlorophenyl)thiazolo[4,5-b]pyrazin-2-yl)-5′-methoxy-2′,6-dimethyl-[4,4′-bipyridine]-3-carboxamide]",< 0.1
4,"COc1cnc(C)cc1-c1cc(C)ncc1C(=O)Nc1nc2ncc(C3CCOC3)nc2s1 (stereo not shown) [Compound 69-P1, N-(6-(tetrahydrofuran-3-yl)thiazolo[4,5-b]pyrazin-2-yl)-5′-methoxy-2′,6-dimethyl-[4,4′-bipyridine]-3-carboxamide]",< 0.1
5,"COc1cnc(C)cc1-c1cc(C)ncc1C(=O)Nc1nc2ncc(-c3ccc(C#N)cc3F)nc2s1 [Compound 70, N-(6-(4-cyano-2-fluorophenyl)thiazolo[4,5-b]pyrazin-2-yl)-5′-methoxy-2′,6-dimethyl-[4,4′-bipyridine]-3-carboxamide]",< 0.1
6,"COc1ccc(Cl)cc1-c1cc(C)ncc1C(=O)Nc1nc2ncc(-c3ccc(Cl)cn3)nc2s1 [Compound 71, 4-(5-chloro-2-methoxyphenyl)-N-(6-(5-chloropyridin-2-yl)thiazolo[4,5-b]pyrazin-2-yl)-6-methylpyridine-3-carboxamide]",< 0.1
7,"COc1cnc(C)c(F)c1-c1cc(C)ncc1C(=O)Nc1nc2ncc(-c3ccc(C#N)cc3)nc2s1 [Compound 76, N-(6-(4-cyanophenyl)thiazolo[4,5-b]pyrazin-2-yl)-3′-fluoro-5′-methoxy-2′,6-dimethyl-[4,4′-bipyridine]-3-carboxamide]",< 0.1
8,"Cc1cc(-c2cc(Cl)ccc2C(F)(F)F)c(C(=O)Nc2nc3ncc(-c4ccc(C#N)cc4)nc3s2)cn1 [Compound 88, 4-(5-chloro-2-(trifluoromethyl)phenyl)-N-(6-(4-cyanophenyl)thiazolo[4,5-b]pyrazin-2-yl)-6-methylpyridine-3-carboxamide]",< 0.1
9,"Cc1cc(-c2cc(Cl)ccc2OC(F)F)c(C(=O)Nc2nc3ncc(-c4ccc(C#N)cc4)nc3s2)cn1 [Compound 89, 4-(5-chloro-2-(difluoromethoxy)phenyl)-N-(6-(4-cyanophenyl)thiazolo[4,5-b]pyrazin-2-yl)-6-methylpyridine-3-carboxamide]",< 0.1
10,"Cc1cc(-c2cc(Cl)ccc2OC(F)(F)F)c(C(=O)Nc2nc3ncc(-c4ccc(C#N)cc4)nc3s2)cn1 [Compound 90, 4-(5-chloro-2-(trifluoromethoxy)phenyl)-N-(6-(4-cyanophenyl)thiazolo[4,5-b]pyrazin-2-yl)-6-methylpyridine-3-carboxamide]",< 0.1

# Further lines, results first:
row,IC50 [µM],Compound
1,< 0.1,"COc1ccccc1-c1ncccc1C(=O)Nc1nc2ncc(-c3ccc(C#N)cc3)nc2s1 [Compound 50, N-(6-(4-cyanophenyl)thiazolo[4,5-b]pyrazin-2-yl)-2-(2-methoxyphenyl)pyridine-3-carboxamide]"
2,< 0.1,"COc1ccccc1-c1cncnc1C(=O)Nc1nc2ncc(-c3ccc(C#N)cc3)nc2s1 [Compound 52, N-(6-(4-cyanophenyl)thiazolo[4,5-b]pyrazin-2-yl)-5-(2-methoxyphenyl)pyrimidine-4-carboxamide]"
3,< 0.1,"COc1ccccc1-c1cncc(F)c1C(=O)Nc1nc2ncc(-c3ccc(C#N)cc3)nc2s1 [Compound 54, N-(6-(4-cyanophenyl)thiazolo[4,5-b]pyrazin-2-yl)-3-fluoro-5-(2-methoxyphenyl)pyridine-4-carboxamide]"
4,< 0.1,"COc1ccccc1-c1ccccc1C(=O)Nc1nc2ncc(-c3ccc(C#N)cc3)nc2s1 [Compound 55, N-(6-(4-cyanophenyl)thiazolo[4,5-b]pyrazin-2-yl)-2′-methoxy-[1,1′-biphenyl]-2-carboxamide]"
5,< 0.1,"COc1ccccc1-c1cn2ncnc2cc1C(=O)Nc1nc2ncc(-c3ccc(C#N)cc3)nc2s1 [Compound 57, N-(6-(4-cyanophenyl)thiazolo[4,5-b]pyrazin-2-yl)-6-(2-methoxyphenyl)-[1,2,4]triazolo[1,5-a]pyridine-7-carboxamide]"
6,< 0.1,"C#Cc1ccccc1-c1nc(C)ncc1C(=O)Nc1nc2ncc(-c3ccc(C#N)cc3)nc2s1 [Compound 59, N-(6-(4-cyanophenyl)thiazolo[4,5-b]pyrazin-2-yl)-4-(2-ethynylphenyl)-2-methylpyrimidine-5-carboxamide]"
7,< 0.1,"C#Cc1ccccc1-c1cc(C)ncc1C(=O)Nc1nc2ncc(-c3ccc(C#N)cc3)cc2s1 [Compound 60, N-(6-(4-cyanophenyl)thiazolo[4,5-b]pyridin-2-yl)-4-(2-ethynylphenyl)-6-methylpyridine-3-carboxamide]"
8,< 0.1,"COc1cnc(C#N)cc1-c1cc(C)ncc1C(=O)Nc1nc2ncc(-c3ccc(Cl)cn3)nc2s1 [Compound 65, N-(6-(5-chloropyridin-2-yl)thiazolo[4,5-b]pyrazin-2-yl)-2′-cyano-5′-methoxy-6-methyl-[4,4′-bipyridine]-3-carboxamide]"
9,< 0.1,"COc1cnc(C)cc1-c1cc(C)ncc1C(=O)Nc1nc2ncc(-c3ccc(Cl)cn3)nc2s1 [Compound 66, N-(6-(5-chloropyridin-2-yl)thiazolo[4,5-b]pyrazin-2-yl)-5′-methoxy-2′,6-dimethyl-[4,4′-bipyridine]-3-carboxamide]"
